pKi: −log10 of the molar value.
Legend:
[1] = target: T1, Purine nucleoside phosphorylase (Homo sapiens, UniProt P00491); experiment: Inhibition of human erythrocyte purine nucleoside phosphorylase (PNPase) in the presence of ethylenediaminetetraacetic acid (Na2 EDTA)
T1 sequence (P00491 whole entry): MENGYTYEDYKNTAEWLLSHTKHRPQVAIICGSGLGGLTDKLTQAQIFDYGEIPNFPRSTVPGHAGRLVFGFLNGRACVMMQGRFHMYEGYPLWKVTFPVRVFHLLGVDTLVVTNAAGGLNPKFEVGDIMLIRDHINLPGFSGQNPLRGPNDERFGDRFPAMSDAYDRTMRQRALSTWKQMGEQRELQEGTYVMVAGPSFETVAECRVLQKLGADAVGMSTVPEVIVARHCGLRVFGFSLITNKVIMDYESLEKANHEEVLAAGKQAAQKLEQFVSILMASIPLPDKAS

[2] = target: T1, Purine nucleoside phosphorylase; experiment: Inhibition of human erythrocyte purine nucleoside phosphorylase (PNPase) in the presence of zinc chloride

Compound | pKi [1] | pKi [2]
Nc1nc(O)c2ncn(CCCCCCCP(=O)(O)CP(=O)(O)O)c2n1 | 5.96 | 8.00
Nc1nc(O)c2ncn(CCCCP(=O)(O)CP(=O)(O)O)c2n1 | 5.85 | 7.00
O=c1[nH]c(=O)c2ncn(CCCCCP(=O)(O)CP(=O)(O)O)c2[nH]1 | 3.57 | 5.85
Nc1nc(O)c2ncn(CCCCCCP(=O)(O)CP(=O)(O)O)c2n1 | 6.41 | 8.43
CCOP(=O)(O)CP(=O)(O)CCCCCn1cnc2c(O)nc(N)nc21 | 4.85 | 5.96
